Measured values: patent publication US20120252796A1, “COMPOUNDS FOR THE TREATMENT OF DYSLIPIDEMIA AND RELATED DISEASES” (priority 2009, published 2012)
One block for each compound: values may come before it.

Assays:
PCSK9 [1] = target: T1, PCSK9 (Homo sapiens, UniProt Q8NBP7); test: PCSK9-LDLR in vitro Binding Assay (ELISA); conditions: for inhibition at 5 µM: Concentration 5 μM
Description: The PCSK9-LDLR in vitro Binding Assay is a quantitative solid phase binding assay between PCSK9 and recombinant LDLR. Plates were pre-coated with a recombinant LDLR-AB domain, which binds PCSK9. Test compound at different concentration was added to the PCSK9 and added to LDLR immobilized on the wells. The amount of bound PCSK9 is measured by binding it with biotinylated anti-His-tag monoclonal antibody, followed by binding with horseradish peroxidase conjugated streptavidin substrate. The color was quantified by ELISA reader at […] which reflects the relative amount of PCSK9 that binds to LDLR in presence and absence of the inhibitor. EC50 values were calculated by nonlinear regression analysis using graph pad prism software. Each concentration point represents values in duplicates.
Target sequence in this assay (Q8NBP7 153-692): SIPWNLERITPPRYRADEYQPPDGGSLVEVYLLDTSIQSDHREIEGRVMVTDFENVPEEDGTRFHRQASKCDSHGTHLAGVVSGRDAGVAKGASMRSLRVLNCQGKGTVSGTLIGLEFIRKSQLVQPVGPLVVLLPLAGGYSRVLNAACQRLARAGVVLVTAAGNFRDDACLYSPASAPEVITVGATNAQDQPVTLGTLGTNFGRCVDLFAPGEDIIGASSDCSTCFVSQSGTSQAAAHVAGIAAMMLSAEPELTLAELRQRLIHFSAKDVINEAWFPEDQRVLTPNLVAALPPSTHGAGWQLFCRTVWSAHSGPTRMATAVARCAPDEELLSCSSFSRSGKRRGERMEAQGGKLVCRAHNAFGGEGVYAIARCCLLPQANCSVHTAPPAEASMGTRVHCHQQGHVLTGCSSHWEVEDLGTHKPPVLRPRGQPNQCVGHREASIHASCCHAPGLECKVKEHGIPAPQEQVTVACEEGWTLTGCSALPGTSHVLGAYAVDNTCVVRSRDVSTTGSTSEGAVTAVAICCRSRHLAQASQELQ
Target sequence in this assay (Q8NBP7 31-152 partner limits assumed): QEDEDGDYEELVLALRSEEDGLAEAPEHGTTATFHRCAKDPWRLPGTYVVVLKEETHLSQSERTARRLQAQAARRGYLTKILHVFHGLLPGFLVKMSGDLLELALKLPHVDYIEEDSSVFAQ

PCSK9 [2] = target: T1, PCSK9; test: SPR binding studies (BIACORE3000); conditions: 25° C., phosphate buffer pH 7.4; compounds run at 10 nM, 100 nM and 1 micro mole, concentration of the value not stated
Description: Instrumentation: BIACORE3000 from GE Life Sciences was used and the Interaction analysis was performed at 25° C.
Buffers: phosphate buffer pH 7.4 supplied by Biacore supplemented with 0.01% dimethyl sulfoxide (DMSO) was used as running buffer during the assay.
Immobilization of Ligand: Sensor chip CM5 was used for analysis. The sensor chip consists of a carboxymethyl-modified dextran polymer linked to a gold-covered glass support. The ligand was diluted to 10 micro gram/ml in 10 mM sodium acetate, pH5.0 and immobilized to the sensor chip, using amine coupling. Running buffer without DMSO was used during immobilization. The surface was activated by injecting a solution containing 0.2M N-ethyl-N′-dimethyl aminopropyl-carbodiimide (EDC) and 50 mM N-hydroxy succinimide (NHS). The system was set for Aim for immobilization of about 1000 RU and the surface was blocked by injecting 1 Mehanolamine at pH 8.5. Then the surface was washed with 50 mM NaOH by injecting two 30 second-pulses to remove off non covalently bound ligand and to stabilize the baseline (automated procedure). Activated dextran was used as a reference surface. To ensure highest sensitivity the SPR Detector response was normalized before running the assay. By calibrating the detector at various light intensities under Conditions of total internal reflection (automated procedure). Solvent correction for DMSO was also carried to minimize the error in data.
Assay Design: A binding assay was set up for different compounds at three different concentrations (10 nM, 100 nM and 1 micro mole), and were injected over the reference and Ligand flow cells at a flow rate of 30 micro liter/min. Each cycle consisted of a 1-min waiting period for monitoring of the baseline stability and 3 minute injection of compound with a 5 minute Undisturbed dissociation phase, and the surface was regenerated with 50 mM NaoH solution. Compound responses in the reference flow cell were subtracted with that of ligand and a solvent correction run was carried in between and the binding potential of the compounds was reported as relative response units (RU).
Target sequence in this assay (Q8NBP7 153-692): as the sequence (Q8NBP7 153-692) above

Compound: Cc1oc(-c2ccncc2)nc1CC1COC(C)(C(=O)NCC(=O)N2CCOCC2)OC1 (centres unmarked) [Example 86, 2-methyl-5-c-((5-methyl-2-(pyridin-4-yl)oxazol-4-yl)methyl)-N-(2-morpholino-2-oxoethyl)-1,3-dioxane-2-carboxamide]
- % Inhibition PCSK9 (PCSK9 [1]; Concentration 10 μM, 10 µM): 11%
- % Inhibition PCSK9 (PCSK9 [1]; Concentration 100 μM, 100 µM): 15%
- Relative response (RU) (PCSK9 [2]): 14.95 RU

Compound: Cc1oc(C(C)(C)C)nc1CC1COC(C)(C(=O)N2CCOCC2)OC1 (centres unmarked) [Example 73, (5-((2-(tert-butyl)-5-methyloxazol-4-yl)methyl)-2-methyl-1,3-dioxan-2-yl)(morpholino)methanone]
- inhibition at 1 µM (PCSK9 [1]; Concentration 1 μM): 25%
- inhibition at 10 µM (PCSK9 [1]; Concentration 10 μM): 27%
- inhibition at 100 µM (PCSK9 [1]; Concentration 100 μM): 37%
- Relative response (RU) (PCSK9 [2]): 2.4 RU

Compound: Cc1ccc(-c2nc(CC3COC(C)(C(=O)NO)OC3)c(C)o2)cc1 (centres unmarked) [Example 59, N-hydroxy-2-methyl-5-((5-methyl-2-(p-tolyl)oxazol-4-yl)methyl)-1,3-dioxane-2-carboxamide]
- inhibition at 1 µM (PCSK9 [1]; Concentration 1 μM): 26%
- inhibition at 10 µM (PCSK9 [1]; Concentration 10 μM): 27%
- inhibition at 100 µM (PCSK9 [1]; Concentration 100 μM): 61%
- Relative response (RU) (PCSK9 [2]): 1.36 RU

Compound: Cc1oc(-c2ccccc2)nc1CC1COC(C)(C(=O)NO)OC1 (single isomer, unassigned) [Example 6, N-hydroxy-2-methyl-5-c-((5-methyl-2-phenyloxazol-4-yl)methyl)-1,3-dioxane-2-carboxamide]
- % Inhibition PCSK9 (PCSK9 [1]; 5 µM): 10%
- % Inhibition PCSK9 (PCSK9 [1]; 10 µM): 11%
- % Inhibition PCSK9 (PCSK9 [1]; 100 µM): 22%
- Relative response (RU) (PCSK9 [2]): 2.65 RU

Compound: Cc1oc(-c2ccccc2)nc1CC1COC(C)(C(=O)N2CCCCC2)OC1 (centres unmarked) [Example 15, (2-methyl-5-c-((5-methyl-2-phenyloxazol-4-yl)methyl)-1,3-dioxan-2-yl)(piperidin-1-yl)methanone]
- % Inhibition PCSK9 (PCSK9 [1]; Concentration 10 μM): 11%
- % Inhibition PCSK9 (PCSK9 [1]; Concentration 100 μM): 4%

Compound: CC(=O)C(Cc1ccccc1)NC(=O)C1(C)OCC(CCc2nc(-c3ccccc3)oc2C)CO1 (centres unmarked) [Example 54, 2-methyl-5-(2-(5-methyl-2-phenyloxazol-4-yl)ethyl)-N-(3-oxo-1-phenylbutan-2-yl)-1,3-dioxane-2-carboxamide]
- inhibition at 10 µM (PCSK9 [1]; Concentration 10 μM): 21%
- inhibition at 100 µM (PCSK9 [1]; Concentration 100 μM): 29%

Compound: Cc1ccc(-n2nc(C(C)(C)C)cc2CC2COC(C)(C(=O)NO)OC2)cc1 (centres unmarked) [Example 99, N-(hydroxy)-5-c-((3-(tert-butyl)-1-(p-tolyl)-1H-pyrazol-5-yl)methyl)-2-methyl-1,3-dioxane-2-carboxamide]
- % Inhibition PCSK9 (PCSK9 [1]; Concentration 10 μM): 5%
- % Inhibition PCSK9 (PCSK9 [1]; Concentration 100 μM): 32%

Compound: Cc1ccc(-c2nc(CC3COC(C)(C(=O)N4CCOCC4)OC3)c(C)o2)cc1 (centres unmarked) [Example 67, (2-methyl-5-t-((5-methyl-2-(p-tolyl)oxazol-4-yl)methyl)-1,3-dioxan-2-yl)(morpholino)methanone]
- % Inhibition PCSK9 (PCSK9 [1]; Concentration 1 μM, 1 µM): 3%
- % Inhibition PCSK9 (PCSK9 [1]; Concentration 10 μM, 10 µM): 21%
- % Inhibition PCSK9 (PCSK9 [1]; Concentration 100 μM, 100 µM): 25%

Compound: Cc1ccc(-c2nc(CC3COC(C)(C(=O)NOCc4ccccc4)OC3)c(C)o2)cc1 (centres unmarked) [Example 56, N-benzyloxy-2-methyl-5-((5-methyl-2-(p-tolyl)oxazol-4-yl)methyl)-1,3-dioxane-2-carboxamide]
- inhibition at 5 µM (PCSK9 [1]): 6%
- inhibition at 10 µM (PCSK9 [1]; Concentration 10 μM): 17%

Compound: Cc1oc(-c2ccncc2)nc1CC1COC(C)(C(=O)N2CCOCC2)OC1 (centres unmarked) [Example 82, (2-methyl-5-c-((5-methyl-2-(pyridin-4-yl)oxazol-4-yl)methyl)-1,3-dioxan-2-yl)(morpholino)methanone]
- % Inhibition PCSK9 (PCSK9 [1]; Concentration 1 μM, 1 µM): 13%
- % Inhibition PCSK9 (PCSK9 [1]; Concentration 10 μM, 10 µM): 20%
- % Inhibition PCSK9 (PCSK9 [1]; Concentration 100 μM): 42%

Compound: Cc1oc(C(C)(C)C)nc1CC1COC(C)(C(=O)NO)OC1 (centres unmarked) [Example 72, 5-((2-(tert-butyl)-5-methyloxazol-4-yl)methyl)-N-hydroxy-2-methyl-1,3-dioxane-2-carboxamide]
- inhibition at 5 µM (PCSK9 [1]): 11%
- inhibition at 100 µM (PCSK9 [1]; Concentration 100 μM): 25%
- inhibition at 110 µM (PCSK9 [1]; Concentration 110 μM): 20%

Compound: Cc1oc(-c2ccccc2)nc1CCC1COC(C)(C(=O)N2CCS(=O)(=O)CC2)OC1 (centres unmarked) [Example 46, (1,1-dioxidothiomorpholino)(2-methyl-5-c-(2-(5-methyl-2-phenyloxazol-4-yl)ethyl)-1,3-dioxan-2-yl)methanone]
- % Inhibition PCSK9 (PCSK9 [1]; Concentration 10 μM): 12%
- % Inhibition PCSK9 (PCSK9 [1]; Concentration 100 μM): 18%

Compound: CC1(C(=O)NO)OCC(CCCn2c3ccccc3c3ccccc32)CO1 (centres unmarked) [Example 96, 5-c-(3-(9H-carbazol-9-yl)propyl)-N-hydroxy-2-methyl-1,3-dioxane-2-carboxamide]
- % Inhibition PCSK9 (PCSK9 [1]; Concentration 10 μM): 10%

Compound: Cc1oc(-c2ccccc2)nc1CC1COC(C)(C(=O)NOCc2ccccc2)OC1 (centres unmarked) [Example 1, N-(benzyloxy)-2-methyl-5-((5-methyl-2-phenyloxazol-4-yl)methyl)-1,3-dioxane-2-carboxamide]
- inhibition at 5 µM (PCSK9 [1]): 25%
- inhibition at 10 µM (PCSK9 [1]; Concentration 10 μM): 30%
- inhibition at 100 µM (PCSK9 [1]; Concentration 100 μM): 32%

Results, then the compound that gave them:

- Relative response (RU) (PCSK9 [2]): 10.3 RU
Compound: Cc1oc(-c2ccccc2)nc1CC1COC(C)(C(=O)NCCC(=O)N2CCOCC2)OC1 (centres unmarked) [Example 26, 2-methyl-5-c-((5-methyl-2-phenyloxazol-4-yl)methyl)-N-(3-morpholino-3-oxopropyl)-1,3-dioxane-2-carboxamide]

- % Inhibition PCSK9 (PCSK9 [1]; Concentration 10 μM): 23%
- % Inhibition PCSK9 (PCSK9 [1]; Concentration 100 μM): 25%
- Relative response (RU) (PCSK9 [2]): 14.1 RU
Compound: Cc1oc(-c2ccccc2)nc1CC1COC(C)(C(=O)NCC(=O)N2CCOCC2)OC1 (centres unmarked) [Example 19, 2-methyl-5-c-((5-methyl-2-phenyloxazol-4-yl)methyl)-N-(2-morpholino-2-oxoethyl)-1,3-dioxane-2-carboxamide]

- % Inhibition PCSK9 (PCSK9 [1]; Concentration 1 μM, 1 µM): 22%
- % Inhibition PCSK9 (PCSK9 [1]; Concentration 10 μM, 10 µM): 30%
- % Inhibition PCSK9 (PCSK9 [1]; Concentration 100 μM, 100 µM): 44%
- Relative response (RU) (PCSK9 [2]): 17.29 RU
Compound: Cc1oc(-c2ccncc2)nc1CC1COC(C)(C(=O)NCC2CCOCC2)OC1 (centres unmarked) [Example 85, 2-methyl-5-t-((5-methyl-2-(pyridin-4-yl)oxazol-4-yl)methyl)-N—((tetrahydro-2H-pyran-4-yl)methyl)-1,3-dioxane-2-carboxamide]

- % Inhibition PCSK9 (PCSK9 [1]; Concentration 0.1 μM): 20%
- % Inhibition PCSK9 (PCSK9 [1]; Concentration 1 μM, 1 µM): 23%
- % Inhibition PCSK9 (PCSK9 [1]; Concentration 10 μM, 10 µM): 25%
- % Inhibition PCSK9 (PCSK9 [1]; Concentration 100 μM, 100 µM): 49%
- Relative response (RU) (PCSK9 [2]): 3.48 RU
Compound: Cc1ccc(-c2nc(CC3COC(C)(C(=O)NCC4CCOCC4)OC3)c(C)o2)cc1 (centres unmarked) [Example 64, 2-methyl-5-t-((5-methyl-2-(p-tolyl)oxazol-4-yl)methyl)-N—((tetrahydro-2H-pyran-4-yl)methyl)-1,3-dioxane-2-carboxamide]

- % Inhibition PCSK9 (PCSK9 [1]; Concentration 10 μM): 12%
- % Inhibition PCSK9 (PCSK9 [1]; Concentration 100 μM): 19%
Compound: Cc1oc(-c2ccccc2)nc1CCC1COC(C)(C(=O)N2CCOCC2)OC1 (centres unmarked) [Example 41, (2-methyl-5-c-(2-(5-methyl-2-phenyloxazol-4-yl)ethyl)-1,3-dioxan-2-yl)(morpholino)methanone]

- % Inhibition PCSK9 (PCSK9 [1]; Concentration 10 μM): 25%
- % Inhibition PCSK9 (PCSK9 [1]; Concentration 100 μM): 17%
Compound: Cc1oc(-c2ccccc2)nc1CC1COC(C)(C(=O)NCC(=O)N2CCCCC2)OC1 (centres unmarked) [Example 22, 2-methyl-5-c-((5-methyl-2-phenyloxazol-4-yl)methyl)-N-(2-oxo-2-(piperidin-1-yl)ethyl)-1,3-dioxane-2-carboxamide]

- % Inhibition PCSK9 (PCSK9 [1]; Concentration 100 μM): 17%
Compound: Cc1oc(-c2ccccc2)nc1CCC1COC(C)(C(=O)NCC(=O)N2CCOCC2)OC1 (centres unmarked) [Example 49, 2-methyl-5-t-(2-(5-methyl-2-phenyloxazol-4-yl)ethyl)-N-(2-morpholino-2-oxoethyl)-1,3-dioxane-2-carboxamide]

- % Inhibition PCSK9 (PCSK9 [1]; Concentration 10 μM): 14%
- % Inhibition PCSK9 (PCSK9 [1]; Concentration 100 μM): 21%
Compound: Cc1oc(-c2ccccc2)nc1CCC1COC(C)(C(=O)NCC2CCOCC2)OC1 (centres unmarked) [Example 38, 2-methyl-5-c-(2-(5-methyl-2-phenyloxazol-4-yl)ethyl)-N—((tetrahydro-2H-pyran-4-yl)methyl)-1,3-dioxane-2-carboxamide]

- % Inhibition PCSK9 (PCSK9 [1]; Concentration 10 μM, 10 µM): 7%
- % Inhibition PCSK9 (PCSK9 [1]; Concentration 100 μM, 100 µM): 10%
Compound: Cc1oc(-c2ccncc2)nc1CC1COC(C)(C(=O)NCC(=O)NCC2CCOCC2)OC1 (centres unmarked) [Example 89, 2-methyl-5-t-((5-methyl-2-(pyridin-4-yl)oxazol-4-yl)methyl)-N-(2-oxo-2-(((tetrahydro-2H-pyran-4-yl)methyl)amino)ethyl)-1,3-dioxane-2-carboxamide]

- % Inhibition PCSK9 (PCSK9 [1]; Concentration 10 μM): 8%
- % Inhibition PCSK9 (PCSK9 [1]; Concentration 100 μM): 12%
Compound: Cc1oc(-c2ccccc2)nc1CC1COC(C)(C(=O)NCCC(=O)N2CCS(=O)(=O)CC2)OC1 (centres unmarked) [Example 29, N-(3-(1,1-dioxidothiomorpholino)-3-oxopropyl)-2-methyl-5-c-((5-methyl-2-phenyloxazol-4-yl)methyl)-1,3-dioxane-2-carboxamide]
